Test results from patent US12698262B2, “Potassium salt of 2-[(4S)-8-fluoro-2-[4-(3-methoxyphenyl)piperazin-1-yl]-3-[2-methoxy-5-(trifluoromethyl)phenyl]-4H-quinazolin-4-yl]acetic acid” (AIC246 AG & Co. KG, priority 2020, dated 2026).
Values joined by “and” are separate entries in the source; they are usually repeats but may differ in a detail not shown here. Equal entries are not always repeated.

Assay: Solubility test in buffers of different pHs (excess salt, HPLC determination of dissolved letermovir, final pH of mixture)
Type: physicochemical
Conditions: for Solubility / solubility at 2 h: stirred two hours at room temperature; for Solubility / Final pH / solubility at 2 h: Entries 1-3; for Final pH: final mixture; for solubility at 2 h: thermodynamic from solid
Procedure: Single Crystal X-ray Diffraction (SCXRD): The measured crystal was selected using a Zeiss stereomicroscope using polarized light and prepared under inert conditions immersed in perfluoropolyether as protecting oil for manipulation. Crystal structure determination was carried out using a Rigaku diffractometer equipped with a Pilatus 200K area detector, a Rigaku MicroMax-007HF microfocus rotating anode with MoKα radiation, Confocal Max Flux optics and an Oxford Cryosystems low temperature device Cryostream 700 plus (T=−173° C.). Full-sphere data collection was used with ω and φ scans. Programs used: Data collection and reduction with CrysAlisPro (Rigaku OD, 2015). V/0.60 A and absorption correction with Scale3 Abspack scaling algorithm (CrysAlisPro 1.171.39.12b (Rigaku OD, 2015)). Crystal structure solution was achieved using the computer program SHELXT (Sheldrick, G. M. Acta Cryst. 2015 A71, 3-8.) and visualized using the program SHELXle (C. B. Huebschle, G. M. Sheldrick & B. Dittrich; J. Appl. Cryst., 2011 44, 1281-1284). Missing atoms were subsequently located from difference Fourier synthesis and added to the atom list. Least-squares refinement on F0^2 using all measured intensities was carried out using the program SHELXL 2015 (SHELXL; Sheldrick, G. M. Acta Cryst., 2015 A71, 3-8.). All non-hydrogen atoms were refined including anisotropic displacement parameters. High Performance Liquid Chromatography (HPLC): • Instrument: Thermo Scientific Ultimate 3000 UHPLC • Column: Agilent Zorbax Eclipse XDB C-18, 150×4.6 mm, 5 μm • Flow rate: 1.0 ml/min • Solvent A: 0.1% formic acid in water • Solvent B: 0.1% formic acid in 100% methanol • Stop time: 27 minutes • Injection volume: 10 μl • Column temperature: 35° C. • Wavelength: 260 nm • Autosampler temperature: 10° C.
An excess of letermovir potassium mixed solvate (the salt of Example 1) or letermovir sodium mixed solvate (the salt of Example 4) was added to 2 mL of the corresponding buffer of different pHs. The saturated suspensions were stirred for two hours at room temperature. […] The final pH of the mixtures was also determined.

Row | Compound | pH of the final solution (aqueous medium, when letermovir concentration is above 100 mg/mL) | concentration levels achieved by dissolving in aqueous medium (aqueous medium, with respect to letermovir free base) | Solubility (buffer pH 2) [mg/mL] | Solubility (buffer pH 5) [mg/mL] | Solubility (buffer pH 6) [mg/mL] | Final pH (initial buffer pH 1) | Final pH (initial buffer pH 2) | Final pH (initial buffer pH 5) | Final pH (initial buffer pH 6) | Final pH (initial buffer pH 7) | Final pH (initial buffer pH 8) | Final pH (initial buffer pH 9) | solubility at 2 h (pH 2, simulated gastric fluid, buffer pH 2) [mg/mL] | solubility at 2 h (pH 5, aqueous buffer, buffer pH 5) [mg/mL] | solubility at 2 h (pH 6, aqueous buffer, buffer pH 6) [mg/mL] | solubility at 2 h (pH 8, aqueous buffer, buffer pH 8) [mg/mL] | solubility at 2 h (pH 9, aqueous buffer, buffer pH 9) [mg/mL]
1 | COc1cccc(N2CCN(C3=Nc4c(F)cccc4[C@H](CC(=O)[O-])N3c3cc(C(F)(F)F)ccc3OC)CC2)c1.[K+] [crystalline potassium salt of letermovir, potassium 2-[(4S)-8-fluoro-2-[4-(3-methoxyphenyl)piperazin-1-yl]-3-[2-methoxy-5-(trifluoromethyl)phenyl]-4H-quinazolin-4-yl]acetate] | 7.4-7.8 and 7-8 | above 100 mg/mL | – | – | – | – | – | – | – | – | – | – | – | – | – | – | –
2 | COc1cccc(N2CCN(C3=Nc4c(F)cccc4[C@H](CC(=O)[O-])N3c3cc(C(F)(F)F)ccc3OC)CC2)c1.[K+] (mixture of isomers) [potassium salt mixed solvate, potassium 2-[(4S)-8-fluoro-2-[4-(3-methoxyphenyl)piperazin-1-yl]-3-[2-methoxy-5-(trifluoromethyl)phenyl]-4H-quinazolin-4-yl]acetate] | – | – | 10.63 | 16.50 | 1.17 | 4.5 and 6.6 | 7.2 and 7.3 | 7.1 and 7.2 | 6.3 | 7.1 and 7.0 and 7.4 | 7.7 and 7.6 | 7.7 | 14.4 | 14.3 | 1.27 | > 100 | > 100
